The values below come from ChEMBL document CHEMBL1777682, “NMR evaluation of interactions between substituted-indole and PDZ1 domain of PSD-95” (Bioorg Med Chem Lett, 2011).

Each structure is given as a SMILES string. Calls of active or inactive are those of the source. The rule behind the calls is not given here.

The target in the assay is Disks large homolog 4 (Homo sapiens) (UniProt P78352). Description: Binding affinity to recombinant 15N-labelled PSD95-PDZ1 domain expressed in Escherichia coli BL21 assessed as chemical shift perturbation by NMR spectra analysis.
Chain of Disks large homolog 4 (Homo sapiens) (P78352 whole entry, looked up, the tested form may be a part): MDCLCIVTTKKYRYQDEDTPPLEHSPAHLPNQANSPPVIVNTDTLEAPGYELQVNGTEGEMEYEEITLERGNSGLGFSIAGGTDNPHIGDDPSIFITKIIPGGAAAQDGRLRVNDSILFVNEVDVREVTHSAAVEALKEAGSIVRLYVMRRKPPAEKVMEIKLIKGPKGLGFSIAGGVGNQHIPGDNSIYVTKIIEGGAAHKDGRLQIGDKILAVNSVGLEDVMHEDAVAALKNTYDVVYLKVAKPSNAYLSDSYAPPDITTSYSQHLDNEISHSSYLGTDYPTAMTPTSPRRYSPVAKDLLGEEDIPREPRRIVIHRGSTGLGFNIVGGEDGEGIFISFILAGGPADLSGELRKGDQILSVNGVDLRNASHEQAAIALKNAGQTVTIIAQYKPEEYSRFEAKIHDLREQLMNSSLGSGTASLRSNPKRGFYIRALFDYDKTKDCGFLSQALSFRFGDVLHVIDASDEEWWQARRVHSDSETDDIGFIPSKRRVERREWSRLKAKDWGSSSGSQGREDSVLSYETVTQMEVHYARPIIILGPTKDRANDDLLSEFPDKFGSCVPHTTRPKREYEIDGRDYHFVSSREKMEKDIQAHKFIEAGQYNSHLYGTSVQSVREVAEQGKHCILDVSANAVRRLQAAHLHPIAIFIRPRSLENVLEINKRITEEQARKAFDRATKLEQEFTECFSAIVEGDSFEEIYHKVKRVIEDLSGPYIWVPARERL
For the compound `COC(=O)c1cc2[nH]c(C(=O)O)c(C)c2cc1C`, the outcome was inactive. The value for `Cc1cc2c(C)c(C(=O)O)n(C)c2cc1C(=O)O` was “inactive”.

In the case of `Cc1cc2c(C)c(C(=O)O)[nH]c2cc1C(=O)O`, the outcome was Active. For `Cc1cc2cc(C(=O)O)[nH]c2cc1C(=O)O` the value was “inactive”; for `Cc1cc2[nH]c(C(=O)O)c(C)c2cc1C(=O)O`, “Active”; for `Cc1c(C(=O)O)[nH]c2ccc(C(=O)O)cc12`, “Active”. For `COC(=O)c1cc2c(C)c(C(=O)O)[nH]c2cc1C` the value was “inactive”; for `CCOC(=O)c1ccc2[nH]c(C(=O)O)c(C)c2c1`, “inactive”.
